# Source: the supplement of paper PMC10307832
# Compound: CN(NC(=O)CC(=O)NN(C)C(=S)c1ccccc1)C(=S)c1ccccc1 [Elesclomol] + NC(=O)Nc1cc(-c2cccc(F)c2)sc1C(=O)N[C@H]1CCCNC1 [AZD7762] (partner 0.2 µM)
# Assay: relative viability (nuclei count vs DMSO), 5 days (fraction); higher = more cells survive
# Procedure, shortened: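 One day after seeding in 1536-well plates, lung cancer cell lines were dosed by pin tool. Dosing was either single-drug or a fixed anchor-drug dose plus five library-drug doses (not always all listed) in √10 steps. After 5 days, nuclei were stained in one fix-and-stain step and counted on 4× images, and relative viability is the nuclei count of treated wells over that of vehicle wells, given as the median of duplicate plates.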
Cell Line,relative viability (first compound 0.003162 µM),relative viability (first compound 0.01 µM),relative viability (first compound 0.03162 µM),relative viability (first compound 0.1 µM)
201T,0.558,0.628,0.564,0.598
A-427,0.756,0.527,0.188,0.151
ABC-1,0.294,0.252,0.309,0.236
BEN,0.654,0.54,0.38,0.294
CAL-12T,0.622,0.483,0.3,0.17
ChaGo-K-1,0.88,0.715,0.416,0.139
EKVX,0.569,0.318,0.206,0.0929
EMC-BAC-2,1.2,0.775,0.831,0.684
EPLC-272H,0.255,0.159,0.11,0.104
H3255,0.818,0.773,0.584,0.521
HARA,0.348,0.288,0.302,0.227
HCC-15,1.15,1.3,1.13,0.632
HCC-44,1,0.942,0.996,1
HCC-78,0.672,0.696,0.513,0.642
HCC-366,0.312,0.255,0.393,0.0195
HCC-827,0.25,0.253,0.163,0.191
HOP-62,0.545,0.576,0.389,0.104
LC-2-ad,0.874,0.819,0.231,0.136
LCLC-97TM1,0.234,0.158,0.16,0.0576
LCLC-103H,0.817,0.639,0.863,0.692

Cell Line,relative viability (first compound 0.003162 µM),relative viability (first compound 0.01 µM),relative viability (first compound 0.03162 µM),relative viability (first compound 0.1 µM)
LK-2,–,0.37,0.279,0.0458
LOU-NH91,0.769,0.726,0.563,0.471
LU99A,0.357,0.329,0.418,0.185
LXF-289,1.01,1.04,0.974,0.509
NCI-H23,0.29,0.164,0.176,0.108
NCI-H322M,0.484,0.411,0.259,0.161
NCI-H358,0.305,0.182,0.161,0.102
NCI-H441,1.14,1.07,1.02,0.203
NCI-H460,0.547,0.513,0.232,0.048
NCI-H522,0.955,0.857,0.756,0.518
NCI-H596,1.19,0.943,0.927,0.252
NCI-H647,0.539,0.253,0.0623,0.0307
NCI-H650,1.23,0.848,0.387,0.23
NCI-H727,0.569,0.683,0.572,0.346
NCI-H838,0.989,0.87,0.735,0.613
NCI-H1355,0.793,0.7,0.478,0.179
NCI-H1395,0.438,0.431,0.226,0.202
NCI-H1437,0.938,0.644,0.547,0.594
NCI-H1651,0.462,0.469,0.345,0.334
NCI-H1666,0.784,0.807,0.492,0.416

Cell Line,relative viability (first compound 0.003162 µM),relative viability (first compound 0.01 µM),relative viability (first compound 0.03162 µM),relative viability (first compound 0.1 µM)
NCI-H1703,0.132,0.0974,0.124,0.0978
NCI-H1734,0.518,0.45,0.145,0.0601
NCI-H1755,0.457,0.349,0.38,0.406
NCI-H1792,0.666,–,0.608,0.257
NCI-H1793,0.442,0.448,0.464,0.104
NCI-H1915,0.716,0.663,0.659,0.368
NCI-H1944,0.469,0.567,0.408,0.206
NCI-H1975,0.779,0.406,0.292,0.212
NCI-H1993,0.712,0.618,0.475,0.315
NCI-H2085,1.04,0.875,0.394,0.25
NCI-H2087,1.23,0.767,0.589,0.279
NCI-H2126,1.02,0.972,0.95,0.929
NCI-H2170,0.896,0.846,0.852,0.493
NCI-H2347,0.703,0.661,0.629,0.447
NCI-H2405,0.692,0.576,0.269,0.281
NCI-H3122,0.97,0.972,0.912,0.0974
PC-3 [JPC-3],0.741,0.539,0.438,0.401
PC-14,0.488,0.107,0.055,0.0324
RERF-LC-KJ,1,0.868,0.741,0.297
SW 900,0.709,0.54,0.272,0.103
